Results as given in paper PMC5024318, “Crystal structures of the bifunctional tRNA methyltransferase Trm5a” (Scientific Reports, 2016).

Key:
PaTrm5a [1] = target: T1, PaTrm5a (Pyrococcus abyssi, UniProt Q9V2G1); assay: X-ray crystal structure, cocrystallisation with SAM (MTA as its degradation product), […] Å; type: binding; conditions: PEG 3350, HEPES pH 7.5, Ca(OAc)2, KCl, 25 °C; SAM site in D3
T1 construct: gene taw22

PaTrm5a [2] = target: T1, PaTrm5a; assay: X-ray crystal structure, cocrystallisation, […] Å; type: binding; conditions: PEG 3350, HEPES pH 7.5, Ca(OAc)2, KCl, 25 °C; SAM site in D3

T1 sequence (Q9V2G1 whole entry): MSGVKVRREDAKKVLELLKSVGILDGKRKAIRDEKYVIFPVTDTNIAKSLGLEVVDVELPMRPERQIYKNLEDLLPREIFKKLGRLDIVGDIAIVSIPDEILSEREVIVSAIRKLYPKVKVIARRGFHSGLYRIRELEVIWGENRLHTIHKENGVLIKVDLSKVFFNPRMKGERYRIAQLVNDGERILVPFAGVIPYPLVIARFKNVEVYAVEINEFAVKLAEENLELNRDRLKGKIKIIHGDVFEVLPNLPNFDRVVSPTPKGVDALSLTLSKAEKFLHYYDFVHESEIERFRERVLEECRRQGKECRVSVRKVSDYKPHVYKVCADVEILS

| Compound | X-ray crystal structure, cocrystallisation with SAM (MTA as its degradation prod) (PaTrm5a [1]) | X-ray crystal structure, cocrystallisation, 2.00 Å (PaTrm5a [2]) |
| --- | --- | --- |
| CSC[C@H]1O[C@@H](n2cnc3c(N)ncnc32)[C@H](O)[C@@H]1O [MTA, 5′-methylthioadenosine] | MTA fits well in the ligand-binding pocket, and interacts with the enzyme | – |
| Nc1ncnc2c1ncn2[C@@H]1O[C@H](CSCC[C@H](N)C(=O)O)[C@@H](O)[C@H]1O [SAH, S-adenosyl-L-homocysteine] | – | the adenosine moiety and the methionine group are specifically recognised by hydrogen bonding interactions |
